# Laboratory results taken from ChEMBL document CHEMBL1201862, “PubChem BioAssay data set” (2004).
# The source made the active and inactive calls.
# Key:
# Protein skinhead-1 = biological target: T1, Protein skinhead-1 (Caenorhabditis elegans, UniProt P34707); format: functional
# T1 sequence (P34707 whole entry): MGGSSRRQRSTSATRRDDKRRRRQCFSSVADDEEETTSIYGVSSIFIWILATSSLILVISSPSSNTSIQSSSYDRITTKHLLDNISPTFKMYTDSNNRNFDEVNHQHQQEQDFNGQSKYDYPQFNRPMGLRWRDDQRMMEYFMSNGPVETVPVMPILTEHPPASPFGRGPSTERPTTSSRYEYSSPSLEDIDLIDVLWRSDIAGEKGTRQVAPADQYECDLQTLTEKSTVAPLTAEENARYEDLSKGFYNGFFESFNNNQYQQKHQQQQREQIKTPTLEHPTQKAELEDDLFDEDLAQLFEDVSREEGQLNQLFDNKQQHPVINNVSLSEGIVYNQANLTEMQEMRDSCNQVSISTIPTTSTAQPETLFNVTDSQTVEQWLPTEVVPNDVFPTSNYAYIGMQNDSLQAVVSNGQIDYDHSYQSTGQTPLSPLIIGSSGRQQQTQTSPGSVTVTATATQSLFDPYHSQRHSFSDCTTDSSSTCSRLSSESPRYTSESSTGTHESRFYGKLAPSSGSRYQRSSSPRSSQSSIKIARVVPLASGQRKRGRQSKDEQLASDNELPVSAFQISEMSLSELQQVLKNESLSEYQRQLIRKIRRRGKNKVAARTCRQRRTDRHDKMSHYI
# [1] = microbe, parasite or virus in culture; format: functional; settings: Mycobacterium tuberculosis
# Vero = assay: cells; format: functional; settings: Chlorocebus sabaeus
# [2] = biological target: T2, Ubiquitin-conjugating enzyme E2 N (Homo sapiens, UniProt P61088); format: functional;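 note: Dose-response confirmation in a TR-FRET assay detecting UBC13-driven polyubiquitin chain formation, inhibition measured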
# T2 sequence (P61088 whole entry): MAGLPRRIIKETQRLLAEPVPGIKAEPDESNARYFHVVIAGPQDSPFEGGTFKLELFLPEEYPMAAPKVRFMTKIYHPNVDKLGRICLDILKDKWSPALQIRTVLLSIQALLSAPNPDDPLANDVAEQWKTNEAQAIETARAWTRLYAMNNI
# Nonstructural protein 1 = Nonstructural protein 1 (Influenza A virus, UniProt Q194T2); format: functional, Influenza A virus (A/California/07/2009(H1N1))
# [3] = biological target: Luciferin 4-monooxygenase (Photinus pyralis, UniProt P08659); assay: firefly luciferase enzyme inhibitors, dose response, biochemical, luminescence (AID 1891)
# [4] = Luminescence Cell-Based Dose Confirmation HTS to Identify Inhibitors of Platelet Dense Granule Release. [Related pubchem assays: 1663 (Primary HTS), 1678 (Summary of Project)]; format: functional
# [5] = growth suppression of PTEN-null colon cells, dose response, cell-based, HCT116 PTEN knockout (AID 1047); format: functional;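 note: HCT116 colon tumor cells with PTEN knocked out; cells exposed to compound for 60 hours before readout; potency for loss of cell viability measured by luminescence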
# [6] = growth suppression of beta-catenin-knockout colon cells, dose response, cell-based, HCT116, human colon tumor (AID 1045); format: functional;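 note: HCT116 colon tumor cells with beta catenin knocked out; cells exposed to compound for 60 hours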
# Streptokinase A = biological target: T3, Streptokinase A (Streptococcus pyogenes serotype M1, UniProt P10520); assay: S. pyogenes streptokinase expression inhibitors, potency, dose response, plasminogen activation absorbance, OD405 (AID 1914); format: functional, Streptococcus pyogenes M1 GAS;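 note: secreted streptokinase activity via plasminogen activation per viability signal from cell pellet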
# T3 sequence (P10520 whole entry): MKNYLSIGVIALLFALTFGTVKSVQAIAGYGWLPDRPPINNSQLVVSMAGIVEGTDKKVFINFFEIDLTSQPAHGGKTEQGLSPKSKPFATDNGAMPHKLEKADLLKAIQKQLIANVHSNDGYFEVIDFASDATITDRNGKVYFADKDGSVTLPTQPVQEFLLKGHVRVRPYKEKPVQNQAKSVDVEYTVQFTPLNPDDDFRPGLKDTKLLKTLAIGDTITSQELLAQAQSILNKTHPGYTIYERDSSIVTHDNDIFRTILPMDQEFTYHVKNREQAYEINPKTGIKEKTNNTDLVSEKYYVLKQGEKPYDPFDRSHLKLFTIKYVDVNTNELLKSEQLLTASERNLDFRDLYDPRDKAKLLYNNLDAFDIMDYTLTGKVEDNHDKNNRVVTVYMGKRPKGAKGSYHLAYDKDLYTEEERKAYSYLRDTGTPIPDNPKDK
# [7] = system: Streptococcus sp. 'group A'; assay: growth inhibition of control SK(-) GAS strain, dose response, counter-screen for streptokinase expression inhibitor project, luminescence, kanamycin, BacTiterGlo, confirmation (AID 1900); format: functional, organism-based
# Streptococcus = assay: Group A Streptococcus viability loss, dose response, counter-screen for streptokinase expression inhibitor project, luminescence, BacTiterGlo (AID 1915); format: functional, organism-based;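 note: potency for reduction of bacterial viability or growth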
# [8] = biological target: T4, RNA-binding protein pos-1 (Caenorhabditis elegans, UniProt G5EF15); assay: inhibitors of POS-1/mex-3 RNA binding, dose response, biochemical, fluorescence polarization (AID 1964);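 note: purified POS-1 fused to maltose binding protein made in E. coli; potency of compounds blocking POS-1 binding to fluorescent RNA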
# T4 sequence (G5EF15 whole entry): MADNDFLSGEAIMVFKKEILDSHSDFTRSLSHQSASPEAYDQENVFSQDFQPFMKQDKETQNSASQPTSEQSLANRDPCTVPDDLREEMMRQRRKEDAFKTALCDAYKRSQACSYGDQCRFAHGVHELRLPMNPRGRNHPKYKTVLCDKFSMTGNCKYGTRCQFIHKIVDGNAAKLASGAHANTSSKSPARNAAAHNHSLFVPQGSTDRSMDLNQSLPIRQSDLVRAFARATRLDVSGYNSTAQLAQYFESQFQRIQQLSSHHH
# [9] = biological target: T5, Zinc finger protein mex-5 (Caenorhabditis elegans, UniProt Q9XUB2); assay: MEX-5/TCR-2 RNA interaction inhibitors, dose response, biochemical, C. elegans, fluorescence polarization (AID 1960)
# T5 sequence (Q9XUB2 whole entry): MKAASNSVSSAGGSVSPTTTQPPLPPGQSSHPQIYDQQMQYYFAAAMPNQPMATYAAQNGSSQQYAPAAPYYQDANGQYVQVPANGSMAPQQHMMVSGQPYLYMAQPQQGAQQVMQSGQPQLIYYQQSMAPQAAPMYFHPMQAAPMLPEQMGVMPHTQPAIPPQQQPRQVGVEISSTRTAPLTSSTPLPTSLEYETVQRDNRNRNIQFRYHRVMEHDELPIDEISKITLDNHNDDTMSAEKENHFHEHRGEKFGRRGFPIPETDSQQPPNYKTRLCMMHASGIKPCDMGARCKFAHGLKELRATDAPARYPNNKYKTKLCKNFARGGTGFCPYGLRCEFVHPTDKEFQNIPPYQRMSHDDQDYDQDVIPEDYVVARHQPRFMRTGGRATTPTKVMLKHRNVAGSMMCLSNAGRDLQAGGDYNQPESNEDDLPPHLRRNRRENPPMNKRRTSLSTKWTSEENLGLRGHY
# H9c2 = assay: cells; format: functional, cell-based; settings: Rattus norvegicus, H9c2, Myocardium;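 note: confirmatory concentration-response retest of ultra-high-throughput screening hits for modulation of myocardial damage; cell death induced by hydrogen peroxide oxidative stress; compound pretreatment for 60 min then peroxide exposure for 2 h; potency is for protecting the cells against peroxide damage rather than for killing them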
# [10] = HEp-2 cell cytotoxicity, dose response, cytotoxicity control for RSV inhibitor project, HTS (AID 2410); format: functional; settings: human respiratory syncytial virus
# Large T antigen = Large T antigen (Simian virus 40, UniProt P03070); format: functional, Betapolyomavirus macacae;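 note: Confirmatory-stage PubChem screen for compounds that inhibit SV40 T antigen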
# [11] = biological target: T6, Rac GTPase-activating protein 1 (Homo sapiens, UniProt Q9H0H5); assay: MgcRacGAP GTPase-activating activity inhibitors, confirmation, biochemical, ADP Hunter fluorescence, primary and confirmatory (AID 624330); format: functional
# T6 sequence (Q9H0H5 whole entry): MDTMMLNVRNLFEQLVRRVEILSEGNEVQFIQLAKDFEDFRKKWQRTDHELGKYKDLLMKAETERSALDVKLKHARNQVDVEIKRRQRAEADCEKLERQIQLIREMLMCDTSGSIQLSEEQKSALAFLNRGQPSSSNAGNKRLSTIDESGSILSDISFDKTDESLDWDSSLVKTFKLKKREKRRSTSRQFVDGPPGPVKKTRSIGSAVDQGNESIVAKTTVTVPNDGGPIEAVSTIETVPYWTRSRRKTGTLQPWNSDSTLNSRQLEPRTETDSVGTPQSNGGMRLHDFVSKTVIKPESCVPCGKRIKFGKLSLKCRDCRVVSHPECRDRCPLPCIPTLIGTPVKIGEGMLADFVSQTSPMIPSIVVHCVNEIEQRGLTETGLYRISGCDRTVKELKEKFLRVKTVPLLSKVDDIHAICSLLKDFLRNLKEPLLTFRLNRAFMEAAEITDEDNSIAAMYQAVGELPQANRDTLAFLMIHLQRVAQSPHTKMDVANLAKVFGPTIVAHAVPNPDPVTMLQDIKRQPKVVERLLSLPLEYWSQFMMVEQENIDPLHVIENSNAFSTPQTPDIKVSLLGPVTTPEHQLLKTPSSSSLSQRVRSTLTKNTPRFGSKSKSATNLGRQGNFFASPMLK
# [12] = P. falciparum Dd2 growth inhibitors, dose response, SYBR Green, cherry-picked samples (AID 1159567); format: functional, cell-based
# Chain of Luciferin 4-monooxygenase (P08659 whole entry): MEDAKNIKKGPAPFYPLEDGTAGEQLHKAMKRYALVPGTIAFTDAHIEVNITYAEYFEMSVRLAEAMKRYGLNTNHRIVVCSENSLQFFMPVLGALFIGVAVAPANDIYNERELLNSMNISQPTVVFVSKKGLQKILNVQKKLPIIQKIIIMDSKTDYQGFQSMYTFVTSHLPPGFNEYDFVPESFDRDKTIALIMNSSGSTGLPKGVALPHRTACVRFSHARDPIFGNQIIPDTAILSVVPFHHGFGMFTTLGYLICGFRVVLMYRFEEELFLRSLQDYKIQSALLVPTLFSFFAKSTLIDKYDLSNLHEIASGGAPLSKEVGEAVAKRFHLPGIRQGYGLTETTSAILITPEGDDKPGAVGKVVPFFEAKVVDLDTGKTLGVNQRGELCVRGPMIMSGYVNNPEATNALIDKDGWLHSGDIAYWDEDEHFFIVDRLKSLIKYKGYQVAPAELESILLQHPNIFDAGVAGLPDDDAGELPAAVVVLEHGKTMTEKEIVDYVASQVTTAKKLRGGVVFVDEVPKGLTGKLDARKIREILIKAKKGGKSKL
# Chain of Nonstructural protein 1 (Q194T2 whole entry): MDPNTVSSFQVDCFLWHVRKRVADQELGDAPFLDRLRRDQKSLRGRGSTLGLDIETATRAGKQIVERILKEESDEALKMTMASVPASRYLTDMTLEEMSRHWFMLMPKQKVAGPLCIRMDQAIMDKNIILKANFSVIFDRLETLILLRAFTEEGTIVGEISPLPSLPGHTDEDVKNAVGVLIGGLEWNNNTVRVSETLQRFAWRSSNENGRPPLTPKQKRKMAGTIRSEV
# Chain of Large T antigen (P03070 whole entry): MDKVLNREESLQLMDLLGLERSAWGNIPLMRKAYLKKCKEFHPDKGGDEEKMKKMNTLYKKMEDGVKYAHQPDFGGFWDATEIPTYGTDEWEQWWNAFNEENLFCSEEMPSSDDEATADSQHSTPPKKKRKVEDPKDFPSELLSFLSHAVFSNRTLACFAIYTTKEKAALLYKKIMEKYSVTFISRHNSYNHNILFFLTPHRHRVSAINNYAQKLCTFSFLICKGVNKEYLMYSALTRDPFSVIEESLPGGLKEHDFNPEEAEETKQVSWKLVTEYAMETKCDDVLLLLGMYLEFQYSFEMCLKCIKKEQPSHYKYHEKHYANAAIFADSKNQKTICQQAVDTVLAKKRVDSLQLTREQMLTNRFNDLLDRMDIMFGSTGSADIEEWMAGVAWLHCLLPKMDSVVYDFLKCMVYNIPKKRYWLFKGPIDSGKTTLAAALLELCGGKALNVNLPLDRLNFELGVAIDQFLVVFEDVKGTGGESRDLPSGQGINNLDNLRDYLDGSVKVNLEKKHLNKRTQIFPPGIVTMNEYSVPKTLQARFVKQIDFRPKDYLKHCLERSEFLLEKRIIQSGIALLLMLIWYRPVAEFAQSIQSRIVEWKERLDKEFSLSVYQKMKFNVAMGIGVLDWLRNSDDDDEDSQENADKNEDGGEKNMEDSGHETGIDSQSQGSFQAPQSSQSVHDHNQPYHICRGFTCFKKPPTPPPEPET
compound,measurement,setting,value
N#Cc1cncc(C#Cc2ccccc2)c1,IC50,Protein skinhead-1,16.9 µM (active)
Cc1ccn2c(-c3csc(NCc4ccccc4)n3)c(C)nc2c1,CC50,[1],> 40 µM (active)
O=C(CCC(=O)N1CCOc2ccc(Cl)cc21)NCCCN1CCC(Cc2ccccc2)CC1,CC50,Vero,18.9 µM (active)
same,IC50,[2],> 20 µM (inactive)
CCN(CC)CCC(c1ccc(N(C)C)cc1)c1c(OC)cc(OC)c2c(-c3ccccc3)cc(=O)oc12 (centres undefined),IC50,Nonstructural protein 1,13.6 µM (active)
same,IC50,[2],> 20 µM (inactive)
COc1ccc(CNc2ccc(-c3ccc(OC)cc3)nn2)cc1,EC50,[3],> 112 µM (not active)
same,EC50,[4],> 112 µM (not active)
CC(=O)Nc1cccc(N2C(=O)CC(Cc3ccccc3)C2=O)c1 (centres undefined),EC50,[3],> 112 µM (not active)
same,EC50,[4],> 112 µM (not active)
COc1ccc(C(=O)C(CCC(CNC(C)(C)C)C(=O)c2ccc(OC)cc2)CNC(C)(C)C)cc1 (centres undefined),EC50,[3],> 112 µM (not active)
same,EC50,[5],3.04 µM (active)
same,EC50,[4],4.24 µM (active)
same,EC50,[6],2.48 µM (active)
Cc1[nH]c2ccccc2c1C(c1ccccn1)c1c(C)[nH]c2ccccc12,IC50,Nonstructural protein 1,> 100 µM (active)
same,EC50,Streptokinase A,> 150 µM (not active)
same,EC50,[7],5.36 µM (active)
same,EC50,Streptococcus,12.1 µM (active)
CCCn1c(O)c(C#N)c(C)c(CN2CCCCC2)c1=O,EC50,[8],> 300 µM (inconclusive)
same,EC50,[9],> 300 µM (not active)
Cc1cc(-n2c(C)cc(C(=O)COc3ccc4ccc(=O)oc4c3)c2C)no1,CC50,[1],> 40 µM (active)
same,IC50,H9c2,24.7 µM (active)
Cc1ccc(NC(=O)C(=O)c2ccc(C)cc2)cc1,IC50,Protein skinhead-1,98.5 µM (inactive)
N#CC1=C(N)OC2=C(C(=O)CCC2)C1c1cc2c(cc1Cl)OCO2 (centres undefined),EC50,[8],> 300 µM (not active)
same,EC50,[9],> 300 µM (not active)
CN(C)c1ccc(N=Nc2ccccc2C(=O)OCC(=O)NCC2CCCCC2)cc1,CC50,[1],> 40 µM (active)
CCCn1c2ccccc2c2nc3ccccc3nc21,IC50,[2],> 20 µM (inactive)
same,CC50,[10],> 50 µM (active)
COc1cccc(NC(=O)C2CCCN(c3ncnc4c3nc3n4CCCCC3)C2)c1 (centres undefined),IC50,Protein skinhead-1,> 100 µM (inactive)
COc1cc(OC)c(NC(=O)c2cc(S(=O)(=O)N3CCOCC3)cn2C)cc1Cl,EC50,[3],> 112 µM (not active)
same,EC50,[4],> 112 µM (not active)
Cc1ccc(NS(=O)(=O)c2cccc(C(=O)N3CCCCCC3)c2)cc1,EC50,[3],> 112 µM (not active)
same,EC50,[4],> 112 µM (not active)
Oc1ccc2ccccc2c1N=Nc1ccccc1F,IC50,Nonstructural protein 1,20.4 µM (active)
CCOc1ccc(N2CC(C(=O)NCCc3ccc(OC)c(OC)c3)CC2=O)cc1 (centres undefined),EC50,[3],> 112 µM (not active)
same,EC50,[4],36.1 µM (active)
Cc1cc2ccccc2n1CCNC(=O)C1CCCC1,IC50,Protein skinhead-1,> 100 µM (inactive)
COC(=O)c1cccc(NC(=O)Nc2ccc(Cl)cc2Cl)c1,EC50,[3],> 112 µM (not active)
same,EC50,[4],> 112 µM (not active)
Brc1cccc(-c2nc(-c3ccncc3)no2)c1,IC50,Protein skinhead-1,16.6 µM (active)
COCOCCn1cc(CN2CCS(=O)(=O)N(Cc3ccc(-c4cccc(N(C)C)c4)cc3)C(C(C)C)C2=O)nn1 (centres undefined),IC50,Protein skinhead-1,> 100 µM (inactive)
CSc1ccc(/C=N/NC(=O)c2cccc(O)c2)cc1,EC50,[3],0.619 µM (active)
same,EC50,[4],6.7 µM (active)
Cn1ncc(Cl)c1C(=O)N/N=C/c1cccc(OC2CSC2)c1,EC50,[8],> 300 µM (not active)
same,EC50,[9],> 300 µM (not active)
CCOC(=O)c1ccc(/N=C2\C(=S)N(c3ccc(C(=O)OCC)cc3)C(=N)N2/N=C/c2ccccc2)cc1,CC50,[1],> 40 µM (active)
O=C1CSC(N/N=C/c2cccs2)=N1,EC50,[8],> 300 µM (not active)
same,EC50,[9],> 300 µM (not active)
O=[N+]([O-])c1cc(-c2ccc(/C=N/n3cnnc3)o2)ccc1Cl,EC50,[8],30.1 µM (active)
same,EC50,[9],32.5 µM (active)
CC1C/C(=N/Nc2ccc([N+](=O)[O-])cc2[N+](=O)[O-])CC(C)(C)C1 (centres undefined),IC50,Nonstructural protein 1,46 µM (active)
Oc1ccc(/C=N/NC(=S)NCCN2CCOCC2)c(O)c1,IC50,Nonstructural protein 1,6.59 µM (active)
same,IC50,Large T antigen,7.26 µM (active)
same,IC50,[11],20.6 µM (active)
CC1(C)CC(=O)C2=C(C1)OC(/N=C/N1CCOCC1)=C(C#N)C2c1ccccc1 (centres undefined),EC50,[8],> 300 µM (not active)
same,EC50,[9],> 300 µM (not active)
COC(=O)c1ccc(CN2CC(=O)N3[C@H](CO)[C@@H](c4ccc(-c5ccccc5F)cc4)[C@H]3C2)cc1,AC50,[12],30 µM (active)
COc1ccc2c3c(n(C)c2c1)[C@H](CO)N(Cc1ccncc1)CC31CCN(C(=O)Cc2ccncc2)CC1,AC50,[12],7.67 µM (active)
COc1ccc(CN2C[C@H](C)[C@@H](OC)CN(C)C(=O)c3cc(NC(=O)c4nc5ccccc5s4)ccc3OC[C@@H]2C)cc1,AC50,[12],4.9 µM (active)
